In US20250268854A1, “2-AMINO-5,5-DIMETHYLHEXANOIC ACID DERIVATIVES AS SORTILIN MODULATORS FOR USE IN THE TREATMENT OF DISEASE OF THE CENTRAL NERVOUS SYSTEM” (c/o Vesper Bio ApS, priority 2021, published 2025):
Structures can show the parent of a compound that is named as a salt.

Tests used:
h-Sortilin = h-Sortilin (Homo sapiens (Human), UniProt Q99523); assay: Neurotensin (NTS) scintillation proximity assay (SPA): displacement of [3H]-neurotensin binding; details: 150 nM 6his-Sortilin, 5 nM [3H]-Neurotensin; average of at least 2 determinations
Experimental: The exemplified compounds of the invention were tested in a Neurotensin (NTS) scintillation proximity assay (SPA). NTS, which is a 13 amino acid neuropeptide, is a sortilin ligand. The IC50 is a measure of the amount of the compound required to inhibit the binding of NTS to sortilin by 50%. […] Compound affinity was determined by measuring the displacement of [^3H]-neurotensin binding to h-Sortilin in SPA format. […] IC50 values were calculated by nonlinear regression using the sigmoid concentration-response (variable slope) using CDD Vault software. All values reported are average of at least 2 determinations.

human Sortilin = human Sortilin (Homo sapiens (Human), UniProt Q99523); assay: Creoptix (GCI) binding kinetics, human Sortilin; details: screened at 1 μM
Experimental: (§1) A protein, bound to a surface, is bathed in a solution containing potential ligands giving rise to binding kinetics to generate Kon and Koff rates, as well as a Kd.
(§2) All buffers described were filtered using a 0.2 μm filter (Product number: 10300461, Nalgene) and degassed for 15 minutes prior to use.
(§3) A flow cell temperature of 25 degrees Celsius was used throughout the experiment.
(§4) A 4PCH chip was conditioned across all flow cells using 0.2× concentration running buffer (running buffer composition: 1×HBS-N, pH 7.4, 3.4 mM EDTA, 1% DMSO) using pre-set conditioning wizard (WAVE control software) injecting: 0.1 M borate, 1 M NaCl (pH 9) followed by three start-up injections of 0.2× running buffer.
(§5) A buffer exchange was performed and 1× running buffer (1×HBS-N, pH 7.4, 3.4 mM EDTA, 1% DMSO) used during the immobilisation procedure:
(§6) An initial injection of EDC/NHS (mixed in 1:1 ratio) was performed across all 4-flow cells to activate the surface for amine coupling of ligands.
Recombinant Sortilin aliquots were thawed quickly by hand and centrifuged at 13,300 rpm for 10 minutes. A 10 μg/ml protein solution was then made in pH 5.0 acetate and injected once for 20 minutes over flow-cells 2, 3 and 4 for human, human (flow cells 2 & 3), and mouse Sortilin respectively followed by a 60 second dissociation period.
A final 7-minute passivation injection of 50 mM tris was used across all flow cells.
A flow rate of 10 μl/min was used for all conditioning and immobilisation cycles.
Compounds were screened at 1 μM using the in-built ‘intermediate binders’ settings: 100 ul/min, 45 s baseline, 25 s association, 300 s dissociation, with blanks every 5th sample and a DMSO correction (1.5% DMSO at the start and end of the experiment as well as every 20 cycles. An acquisition rate of 10 Hz was used throughout the experiment.
Compounds were screened at a final assay concentration of 1 μM and a final DMSO concentration was 1%. To achieve this, compounds were diluted in DMSO from 10 mM stocks to 100 μM (100×final assay concentration) then diluted 1:100 in running buffer which contained no DMSO to establish a final assay concentration of compound of 1 μM and a final DMSO concentration of 1% [DMSO].
Compounds and DMSO were mixed by plate shaking at 1000 rpm for 60 seconds using a Bioshake instrument.
A flow rate of 100 μl/min was used throughout the experiment.
(§7) Data was evaluated using the RAPID kinetic analysis tool in the GCI WAVE_control software with data fitted using a standard 1:1 kinetic BioModel.

mouse Sortilin = mouse Sortilin (Mus musculus (Mouse), UniProt Q6PHU5); assay: Creoptix (GCI) binding kinetics, mouse Sortilin; details: screened at 1 μM
Experimental: as §1, §2, §3, §4, §5, §6
Recombinant Sortilin aliquots were thawed quickly by hand and centrifuged at 13,300 rpm for 10 minutes. […]
as §7

[1] = Brain homogenate binding by rapid equilibrium dialysis; type: in vitro ADME; details: 37° C.; for Mouse Brain Unbound (Fu, %): 5 μM, 4 hours, dilution factor 5; for fraction unbound at 4 h, 5 μM: CD1, pH 7.4, mouse brain homogenate, dilution factor 5, read-out: Mouse Brain Unbound (Fu, %)
Experimental: (§8) Rapid Equilibrium Dialysis The test compounds were incubated in CD1-mouse plasma and brain homogenate at 37° C. in RED device with inserts (8K MWCO, Thermo scientific) for 4 hours at 5 μM in triplicates. 350 μL of 150 mM phosphate buffered saline (PBS, pH 7.4) was used as the receiver side solutions. The samples were collected from both sides after 4 hours equilibration time and their matrices were made similar by diluting the donor side sample using blank PBS, and by diluting the receiver side sample using blank plasma/phosphate buffered saline. After the incubation, aliquots of donor side matrixes were diluted with an equal volume of the blank receiver side matrix and aliquots of receiver side matrixes were diluted with an equal volume of blank donor side matrix. All samples were protein precipitated by addition of a two-fold volume of acetonitrile containing 100 nM of repaglinide as an internal standard. After 10-minute centrifugation at 13 200 rpm, the sample supernatants were analysed with an LC-MS/MS, to obtain the unbound fraction of the test compound (Fub). The unbound fraction was calculated from the peak area ratios obtained for each matrix: […]
(§9) Recovery samples were prepared in each condition but without dialysis, and were used for evaluation of recovery from the dialysis experiment using following formula: […]
(§10) where VPBS is the volume on the receiver side (PBS) and Vplasma is the volume on donor side (plasma) of the dialysis device. Crecovery is the analyte concentration measured from the recovery sample.
(§11) Propranolol (1 μM) and fluoxetine (5 μM) were included in the experiment as a control compounds.
The unbound fraction in brain (Fub, brain) was calculated from the measured value in brain homogenate (Fub, meas), taking into account the dilution factor used in preparing the brain homogenate:
where D=dilution factor (here 5).

[2] = Plasma protein binding by rapid equilibrium dialysis; type: in vitro ADME; details: 37° C.; for Mouse Plasma Unbound (Fu, %): CD1-mouse plasma, 5 μM, 4 hours; for fraction unbound at 4 h, 5 μM: pH 7.4, CD1-mouse plasma, read-out: Mouse Plasma Unbound (Fu, %)
Experimental: as §8
where CPBS and Cplasma are the analyte concentrations in PBS (receiver) and plasma (donor), respectively.
as §9, §10, §11

[3] = Blood-brain-barrier permeability of study compounds in mice after PO administration; details: mouse; for Kp uu at 1 h: brain and plasma (unbound concentrations), oral, Kpuu, ratio of unbound brain to unbound plasma concentration; for concentration at 1 h: po, T = 1 hour; for blood brain barrier penetration: conclusion in words
Experimental: (§12) Separately, the fraction of compound bound to plasma protein or brain homogenate was measured to allow assessment of free fractions.
(§13) In practice, unbound fractions in plasma and brain tissue were assessed using rapid equilibrium dialysis in vitro. Separately a pharmacokinetic study was run in vivo whereby a dose of the compound of interest was given at T=0 hours and at subsequent timepoints (eg 0.5, 1 and 4 hours) plasma and separately brain samples were analysed for total concentration of the compound of interest. These total concentrations could then be adjusted with the unbound fraction to give the unbound concentrations in the plasma and brain. The unbound partition coefficient (Kpuu) was then determined as a ratio between the free compound concentrations in the compartment of interest, here the brain/CNS and the plasma.
(§14) The compound is administered to the animal in a suitable vehicle at T=0 hours. At one hour post administration plasma and separately brain are removed, prepared and analysed for total compound concentration.
(§15) Mouse brain samples were prepared for analysis by homogenization with Omni bead ruptor, using 4-fold volume of 150 mM phosphate buffered saline (PBS) (E.g. 400 uL PBS+100 mg brain). After homogenization, a 30 μL homogenate sample was mixed with 60 μL of internal standard solution (100 ng/ml of repaglinide and phenacetin in acetonitrile (ACN) containing 1% formic acid) and mixed. Samples were centrifuged for 20 minutes (4000 rpm, Thermo Scientific SL16) and 50 μl of supernatant, together with 100 μl of 50% acetonitrile was transferred on an analytical plate. Standard samples were prepared by spiking blank brain homogenate to obtain concentrations from 0.1 to 10 000 ng/ml in brain homogenate by using one volume of spiking solution and nine volumes of blank homogenate. Quality control (QC) samples were prepared for concentrations at 3, 30, 300 and 3000 ng/ml by using one volume of spiking solution and nine volumes of blank brain homogenate. The standards and QCs were then prepared for analysis similarly as the samples. Blank brain matrix was collected in-house from CD-1 mice.
(§16) The samples were prepared by mixing 30 μL of plasma sample with 60 μL of internal standard solution (100 ng/ml of repaglinide and phenacetin in ACN with 1% of formic acid) and mixed. Samples were centrifuged for 20 minutes (4000 rpm, Thermo Scientific SL16) and 50 μl of supernatant, together with 100 μl of 50% acetonitrile was transferred on analytical plate. 10 μl of diluted samples were transferred on analytical plate and further diluted with 190 μl of 50% acetonitrile. Standard samples were prepared by spiking blank plasma to obtain concentrations from 0.1 to 10 000 ng/ml in plasma by using one volume of spiking solution and nine volumes of blank plasma. Quality control (QC) samples were prepared for concentrations at 3, 30, 300 and 3000 ng/ml by using one volume of spiking solution and nine volumes of plasma. The standards and QCs were then prepared for analysis similarly as the samples. Blank plasma was collected in-house from CD-1 mice.
(§17) Instrumentation: Waters Acquity UPLC+Waters TQ-S triple quadrupole MS; Column: Waters Acquity HSS T3 (2.1×50 mm, 1.8 μm) column with pre-column filter; Gradient Elution; A=0.1% Formic acid, B=Acetonitrile

in vivo = details: mouse, Kpuu
Experimental: as §12, §13, §14, §15, §16, §17

[4] = brain, Brain Tissue Concentration (ng/g) T = 1 hour
[5] = brain, Unbound Brain Concentration (ng/mL) T = 1 hour
[6] = plasma, Total Plasma Concentration (ng/ml) T = 1 hour
[7] = plasma, Unbound Plasma Concentration (ng/mL) T = 1 hour

Sequence of human Sortilin (Q99523 78-755): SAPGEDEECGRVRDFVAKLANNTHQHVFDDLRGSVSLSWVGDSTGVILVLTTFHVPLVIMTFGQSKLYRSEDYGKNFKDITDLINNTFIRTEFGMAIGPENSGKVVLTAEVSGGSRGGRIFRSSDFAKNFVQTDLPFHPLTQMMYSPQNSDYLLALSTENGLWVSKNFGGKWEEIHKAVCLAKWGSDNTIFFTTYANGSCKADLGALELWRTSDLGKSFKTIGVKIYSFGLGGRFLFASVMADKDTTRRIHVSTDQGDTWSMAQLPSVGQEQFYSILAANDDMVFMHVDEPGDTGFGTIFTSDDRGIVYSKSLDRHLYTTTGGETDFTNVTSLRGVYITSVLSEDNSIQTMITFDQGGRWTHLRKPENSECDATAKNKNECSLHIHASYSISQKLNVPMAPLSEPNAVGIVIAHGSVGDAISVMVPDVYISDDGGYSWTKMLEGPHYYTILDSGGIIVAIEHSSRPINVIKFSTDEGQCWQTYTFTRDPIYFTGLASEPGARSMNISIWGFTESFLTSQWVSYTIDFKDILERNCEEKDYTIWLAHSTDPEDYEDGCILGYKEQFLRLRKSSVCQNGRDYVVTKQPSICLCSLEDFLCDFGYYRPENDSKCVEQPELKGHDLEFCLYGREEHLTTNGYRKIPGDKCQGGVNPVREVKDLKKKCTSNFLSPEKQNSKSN
Sequence of h-Sortilin (Q99523 78-831): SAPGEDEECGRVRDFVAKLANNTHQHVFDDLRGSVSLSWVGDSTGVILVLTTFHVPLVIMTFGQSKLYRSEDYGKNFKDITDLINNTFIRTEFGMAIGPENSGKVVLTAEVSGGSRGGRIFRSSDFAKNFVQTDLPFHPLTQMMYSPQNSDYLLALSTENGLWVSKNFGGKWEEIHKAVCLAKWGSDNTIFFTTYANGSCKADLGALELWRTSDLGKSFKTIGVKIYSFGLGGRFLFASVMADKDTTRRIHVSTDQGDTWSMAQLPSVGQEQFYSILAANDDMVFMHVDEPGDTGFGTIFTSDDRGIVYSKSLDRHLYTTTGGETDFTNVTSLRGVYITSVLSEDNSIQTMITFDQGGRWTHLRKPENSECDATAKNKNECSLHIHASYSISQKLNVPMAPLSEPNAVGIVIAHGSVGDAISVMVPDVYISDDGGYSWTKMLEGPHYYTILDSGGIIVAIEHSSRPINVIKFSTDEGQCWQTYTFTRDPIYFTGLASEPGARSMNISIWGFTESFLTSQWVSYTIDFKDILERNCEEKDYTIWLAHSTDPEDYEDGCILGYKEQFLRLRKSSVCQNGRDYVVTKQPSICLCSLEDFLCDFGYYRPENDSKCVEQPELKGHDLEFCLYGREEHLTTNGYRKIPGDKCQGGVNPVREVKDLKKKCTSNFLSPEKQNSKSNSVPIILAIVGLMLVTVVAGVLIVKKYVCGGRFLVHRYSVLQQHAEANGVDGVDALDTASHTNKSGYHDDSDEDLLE
Sequence of mouse Sortilin (Q6PHU5 76-753): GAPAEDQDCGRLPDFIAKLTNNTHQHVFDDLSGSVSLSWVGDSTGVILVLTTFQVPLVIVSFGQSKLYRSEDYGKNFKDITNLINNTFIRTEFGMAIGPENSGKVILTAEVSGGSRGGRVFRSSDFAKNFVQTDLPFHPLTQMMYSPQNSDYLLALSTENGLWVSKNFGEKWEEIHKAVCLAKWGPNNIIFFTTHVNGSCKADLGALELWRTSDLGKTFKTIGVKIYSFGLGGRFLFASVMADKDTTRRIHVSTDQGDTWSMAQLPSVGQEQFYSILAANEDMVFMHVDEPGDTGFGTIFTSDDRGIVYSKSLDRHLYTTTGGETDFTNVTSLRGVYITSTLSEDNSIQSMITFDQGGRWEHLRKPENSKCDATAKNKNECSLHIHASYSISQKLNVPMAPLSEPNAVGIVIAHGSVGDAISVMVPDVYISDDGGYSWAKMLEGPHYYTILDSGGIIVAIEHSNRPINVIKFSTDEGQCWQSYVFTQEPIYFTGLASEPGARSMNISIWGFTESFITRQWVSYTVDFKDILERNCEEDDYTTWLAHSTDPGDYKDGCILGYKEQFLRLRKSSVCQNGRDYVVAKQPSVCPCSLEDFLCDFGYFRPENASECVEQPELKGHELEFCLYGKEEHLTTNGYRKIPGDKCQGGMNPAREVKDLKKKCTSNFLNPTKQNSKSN

| IC50 (h-Sortilin) [nM] | Kd (human Sortilin; Free acid) [nM] | Compound | further results |
| --- | --- | --- | --- |
| 390 | 4020 | COc1cccc([C@@H](N[C@@H](CCC(C)(C)C)C(=O)O)C(F)(F)F)c1 [Example 23, (2S)-5,5-dimethyl-2-{[(1R)-2,2,2-trifluoro-1-(3-methoxyphenyl)ethyl]amino}hexanoic acid] |  |
| 650 | 895 | CC(C)(C)CC[C@H](NCc1cnc2ccccc2c1)C(=O)O [Example 35, (2S)-5,5-dimethyl-2-{[(quinolin-3-yl)methyl]amino}hexanoic acid] | Kd (mouse Sortilin; Free acid): 1050 nM |
| 280 | 277 | COc1ccc([C@H](C)N[C@@H](CCC(C)(C)C)C(=O)O)cc1C [Example 101] |  |
| 430 | 310 | COc1cncc(CN[C@@H](CCC(C)(C)C)C(=O)O)c1 [Example 144, (2S)-2-{[(5-methoxypyridin-3-yl)methyl]amino}-5,5-dimethylhexanoic acid] |  |
| 1360 | 747 | COc1ccc(CN[C@@H](CCC(C)(C)C)C(=O)O)cc1OC [Example 38, (2S)-2-{[(3,4-dimethoxyphenyl)methyl]amino}-5,5-dimethylhexanoic acid] |  |
| 580 | 450 | COc1cc(Cl)cc(CN[C@@H](CCC(C)(C)C)C(=O)O)c1 [Example 30, (2S)-2-{[(3-chloro-5-methoxyphenyl)methyl]amino}-5,5-dimethylhexanoic acid] |  |
| 270 | 284 | COc1cccc([C@H](N[C@@H](CCC(C)(C)C)C(=O)O)C(F)F)c1 [Example 21, (2S)-2-{[(1S)-2,2-difluoro-1-(3-methoxyphenyl)ethyl]amino}-5,5-dimethylhexanoic acid] |  |
| 160 | 83.2 | CC(C)(C)CC[C@H](NCc1cnc2cccnc2c1)C(=O)O [Example 103, (2S)-5,5-dimethyl-2-{[(1,5-naphthyridin-3-yl)methyl]amino}hexanoic acid] |  |
| 540 | 407 | COc1ccc([C@@H](C)N[C@@H](CCC(C)(C)C)C(=O)O)cc1C [Example 102] |  |
| 470 | 101 | CC(C)(C)CC[C@H](NCc1ccc2c(c1)CCCO2)C(=O)O [Example 40, (2S)-2-{[(3,4-dihydro-2H-1-benzopyran-6-yl)methyl]amino}-5,5-dimethylhexanoic acid] |  |
| 320 | 625 | COc1ccc([C@@H](N[C@@H](CCC(C)(C)C)C(=O)O)C(F)F)cc1OC [Example 113, (2S)-2-{[(1R)-1-(3,4-dimethoxyphenyl)-2,2-difluoroethyl]amino}-5,5-dimethylhexanoic acid] |  |
| 560 | 1930 | COc1cccc(CN[C@@H](CCC(C)(C)C)C(=O)O)c1.Cl [Example 5, (2S)-2-{[(3-methoxyphenyl)methyl]amino}-5,5-dimethylhexanoic acid] | Kd (mouse Sortilin; HCl salt): 1020 nM; Mouse Brain Unbound (Fu, %) [1]: 29.1%; fraction unbound at 4 h, 5 μM [1]: 0.291; Mouse Plasma Unbound (Fu, %) [2]: 3.3%; fraction unbound at 4 h, 5 μM [2]: 0.033; Kd (human Sortilin; Ms salt): 423 nM; Kd (human Sortilin; MsOH salt): 396 nM; Kp uu at 1 h [3]: > 0.1; concentration at 1 h [3, 4]: 48.5 ng/g; concentration at 1 h [3, 5]: 14 ng/mL; concentration at 1 h [3, 6]: 3560 ng/mL; concentration at 1 h [3, 7]: 117 ng/mL; blood brain barrier penetration [3]: permeate the blood brain barrier |
| 420 | 351 | COc1ccc([C@@H](N[C@@H](CCC(C)(C)C)C(=O)O)C(F)(F)F)cc1OC [Example 115, (2S)-2-{[(1R)-1-(3,4-dimethoxyphenyl)-2,2,2-trifluoroethyl]amino}-5,5-dimethylhexanoic acid] |  |
|  |  | Cc1cccc(NC(=O)c2ccc(C(F)(F)F)cc2C(=O)O)n1 [Comparative Example 1, reference compound] | Kp uu at 1 h (in vivo): < 0.1; concentration at 1 h [3, 4]: 0.9 ng/g; concentration at 1 h [3, 5]: 0.2 ng/mL; concentration at 1 h [3, 6]: 393 ng/mL; concentration at 1 h [3, 7]: 27 ng/mL; blood brain barrier penetration [3]: did not show a blood brain barrier penetration |
| 260 | 5960 | COc1cccc([C@@H](N[C@@H](CCC(C)(C)C)C(=O)O)C(F)F)c1 [Example 22, (2S)-2-{[(1R)-2,2-difluoro-1-(3-methoxyphenyl)ethyl]amino}-5,5-dimethylhexanoic acid] |  |
| 330 |  | Cn1ccc2c(CN[C@@H](CCC(C)(C)C)C(=O)O)cccc21 [Example 6, (S)-5,5-dimethyl-2-(((1-methyl-1H-indol-4-yl)methyl)amino)hexanoic acid hydrochloride] | Mouse Brain Unbound (Fu, %) [1]: 22.9%; fraction unbound at 4 h, 5 μM [1]: 0.229; Mouse Plasma Unbound (Fu, %) [2]: 5.8%; fraction unbound at 4 h, 5 μM [2]: 0.058; Kp uu at 1 h [3]: > 0.1; concentration at 1 h [3, 4]: 6.25 ng/g; concentration at 1 h [3, 5]: 1.4 ng/mL; concentration at 1 h [3, 6]: 138 ng/mL; concentration at 1 h [3, 7]: 8 ng/mL; blood brain barrier penetration [3]: permeate the blood brain barrier |
| 520 | 432 | COc1cc(Br)cc(CN[C@@H](CCC(C)(C)C)C(=O)O)c1 [Example 31, (2S)-2-{[(3-bromo-5-methoxyphenyl)methyl]amino}-5,5-dimethylhexanoic acid] |  |
| 410 | 1980 | CC(C)(C)CC[C@H](NCc1cncnc1)C(=O)O [Example 55, (2S)-5,5-dimethyl-2-{[(pyrimidin-5-yl)methyl]amino}hexanoic acid] |  |
